Laboratory results: US20050196795A1, “Methods for diagnosing and treating bladder cancer” (priority 2004, published 2005)

Legend:
[1] = tested on: Human bladder HT-1376 cells; assay: Caspase-3 activity in cell lysates of 48 h cultures (apoptosis); type: cell-based; conditions: ANOVA, Newman-Keuls, p<0.05
Procedure: The reduction in cell proliferation seen with MIF inhibitor treatment could possibly be due to induction of apoptosis. To assess this we determined caspase-3 activity within the cell lysates of 48 h cultures.

HT-1376 cells = assay: Cytokine protein array analysis of secreted cytokines; type: cell-based, human
Procedure: MIF plays a key role in pro-inflammatory gene and cytokine expression. Therefore changes in MIF expression or protein content are likely to affect the expression of additional cytokines. This may in fact be a key in the utility of MIF inhibition in treating bladder adenocarcinoma. To test this, cytokine expression changes induced by MIF inhibition were also evaluated by cytokine protein array analysis (Ray Biotech, Norcross, Ga.), which detected secreted cytokines. […] A summary of the cytokine secretion changes (2 fold or greater) seen with MIF inhibition is described in Table 1.
HT-1376 cells express and secrete 65 of the 79 cytokines present on the array. The three types of MIF inhibition all affected the cytokine secretion patterns of these cells. In table 1, blank cells indicate no difference between the amounts of cytokine secreted by the treated and control cells. Arrows indicate an increase or decrease in the fold amount of cytokine secreted. […] Healon decreased the secreted amount of 27 cytokines.

[2] = tested on: HT-1376 bladder epithelial cells; assay: MIF protein synthesis and secretion (cellular and secreted MIF); type: cell-based, human; conditions: HT-1376 cells, in vitro treatment
Procedure: In order to establish the relevance of MIF to urogenital disease in humans we sought to determine if human bladder epithelial cells secrete MIF. Human bladder HT-1376 cells (ATCC, Manasas, Va.) were cultured for 48 hours and the culture medium was assayed for MIF using ELISA. In addition, intracellular content of MIF was assayed from cell lysates. These human bladder adenocarcinoma cells synthesize MIF ([…]). The average MIF concentration secreted into the medium by these cells was 15 ng/ml. Expression of MIF was confirmed by RT-PCR analysis. Thus establishing MIF secretion by human bladder epithelia.
Next, we determined if addition of MIF inhibitors in the culture media changed the synthesis or release of MIF by these cells.
A human MIF-specific “sandwich” ELISA technique was developed, based on the capture of MIF by immobilized monoclonal antibody (MAB289, R&D Systems) followed by detection with goat polyclonal anti-MIF affinity purified IgG (BAF289, R&D Systems). This assay was successfully used previously to detect MIF levels in serum and urine. This is another application of this protocol in which MIF levels are detected in urine for bladder cancer diagnosis and prognosis. Intravesical MIF inhibitors are a potential new treatment for bladder cancer. […]

[3] = fold vs control, ↓ decrease ↑ increase, Not detected = no longer detectable after treatment

hyaluronan [Healon]
caspase-3 activity [1]: no significant increase | number of secreted cytokines whose amount was decreased (HT-1376 cells; 65 of the 79 cytokines on the array expressed): 27 | Secreted Cytokines: Ang (HT-1376 cells; [3]): Not detected | Secreted Cytokines: Ckβ 8-1 (HT-1376 cells; [3]): Not detected | Secreted Cytokines: Eotaxin (HT-1376 cells; [3]): Not detected | Secreted Cytokines: Eotaxin-3 (HT-1376 cells; [3]): Not detected | Secreted Cytokines: IGF-1 (HT-1376 cells; [3]): Not detected | Secreted Cytokines: IL-1β (HT-1376 cells; [3]): no affect | Secreted Cytokines: MIF (HT-1376 cells; [3]): Not detected | Secreted Cytokines: MIP-3α (HT-1376 cells; [3]): Not detected | Secreted Cytokines: TNF-α (HT-1376 cells; [3]): Not detected | decrease in secreted (extracellular) MIF [2]: 2.8 fold | increase in cellular MIF content [2]: 2 fold
